Laboratory results from patent US12077503B2, “Substituted cyclic amides and their use as herbicides” (FMC CORPORATION, priority 2015, dated 2024).

Key:
Type in all cases: in vivo
[1] = tested on: wheat (Triticum aestivum); test: Test A postemergence; settings: Triticum aestivum, post-emergence, 240 h; for plant injury at 125 g/ha: 125 g ai/ha, postemergence, visual injury on 0 to 100 scale (0 no effect, 100 complete control), approx. 10 d, read-out: Wheat plant response rating; for plant injury at 31 g/ha: Postemergence, 31 g ai/ha, visual injury after approx. 10 d, 0 to 100 scale, 0 no effect, 100 complete control, read-out: Plant response rating, Wheat
In short: (§1)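 Treatment is preemergence as a directed soil spray after planting, or postemergence at the one- to two-leaf stage, with test chemical in a non-phytotoxic solvent mixture plus surfactant. Plants stay in the greenhouse about 10 d before visual injury scoring on a 0 to 100 scale versus untreated controls.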

[2] = tested on: Galium (catchweed bedstraw, Galium aparine); test: Test A postemergence; settings: Galium, post-emergence, 240 h; for pest or weed control at 125 g/ha: 125 g ai/ha, postemergence, visual injury on 0 to 100 scale (0 no effect, 100 complete control), approx. 10 d, read-out: Galium plant response rating; for pest or weed control at 31 g/ha: Postemergence, 31 g ai/ha, visual injury after approx. 10 d, 0 to 100 scale, 0 no effect, 100 complete control, read-out: Plant response rating, Galium
In short: as §1

Kochia (Kochia scoparia) [3] = test: Test A postemergence; settings: Bassia scoparia, post-emergence, 240 h; for pest or weed control at 31 g/ha: Postemergence, 31 g ai/ha, visual injury after approx. 10 d, 0 to 100 scale, 0 no effect, 100 complete control, read-out: Plant response rating, Kochia
In short: as §1

corn (Zea mays) = test: Test A postemergence; settings: Zea mays, post-emergence, 240 h; for plant injury at 125 g/ha: 125 g ai/ha, postemergence, visual injury on 0 to 100 scale (0 no effect, 100 complete control), approx. 10 d, read-out: Corn plant response rating; for Corn plant response rating (crop injury, 0 = no effect, 100 = complete kill) at 31 g/ha: Postemergence, 31 g ai/ha, visual injury after approx. 10 d, 0 to 100 scale, 100 complete control
In short: as §1

[4] = tested on: barnyardgrass (Echinochloa crus-galli); test: Test A postemergence; settings: Echinochloa crus-galli, post-emergence, 240 h; for pest or weed control at 125 g/ha: 125 g ai/ha, postemergence, visual injury on 0 to 100 scale (0 no effect, 100 complete control), approx. 10 d, read-out: Barnyardgrass plant response rating; for pest or weed control at 31 g/ha: Postemergence, 31 g ai/ha, visual injury after approx. 10 d, 0 to 100 scale, 0 no effect, 100 complete control, read-out: Plant response rating, Barnyardgrass
In short: as §1

[5] = tested on: pigweed (Amaranthus retroflexus); test: Test A postemergence; settings: Amaranthus retroflexus, post-emergence, 240 h; for pest or weed control at 125 g/ha: 125 g ai/ha, postemergence, visual injury on 0 to 100 scale (0 no effect, 100 complete control), approx. 10 d, read-out: Pigweed plant response rating; for pest or weed control at 31 g/ha: Postemergence, 31 g ai/ha, visual injury after approx. 10 d, 0 to 100 scale, 0 no effect, 100 complete control, read-out: Plant response rating, Pigweed
In short: as §1

[6] = tested on: blackgrass (Alopecurus myosuroides); test: Test A postemergence; settings: Alopecurus myosuroides, post-emergence, 240 h; for pest or weed control at 125 g/ha: 125 g ai/ha, postemergence, visual injury on 0 to 100 scale (0 no effect, 100 complete control), approx. 10 d, read-out: Blackgrass plant response rating; for pest or weed control at 31 g/ha: Postemergence, 31 g ai/ha, visual injury after approx. 10 d, 0 to 100 scale, 0 no effect, 100 complete control, read-out: Plant response rating, Blackgrass
In short: as §1

[7] = tested on: ryegrass, Italian (Italian ryegrass, Lolium multiflorum); test: Test A postemergence; settings: Lolium multiflorum, post-emergence, 240 h; for pest or weed control at 125 g/ha: 125 g ai/ha, postemergence, visual injury on 0 to 100 scale (0 no effect, 100 complete control), approx. 10 d, read-out: Ryegrass, Italian plant response rating; for pest or weed control at 31 g/ha: Postemergence, 31 g ai/ha, visual injury after approx. 10 d, 0 to 100 scale, 0 no effect, 100 complete control, read-out: Plant response rating, Ryegrass, Italian
In short: as §1

[8] = tested on: ragweed (common ragweed, Ambrosia elatior); test: Test A postemergence; settings: Ambrosia artemisiifolia, post-emergence, 240 h; for pest or weed control at 125 g/ha: 125 g ai/ha, postemergence, visual injury on 0 to 100 scale (0 no effect, 100 complete control), approx. 10 d, read-out: Ragweed plant response rating; for pest or weed control at 31 g/ha: Postemergence, 31 g ai/ha, visual injury after approx. 10 d, 0 to 100 scale, 0 no effect, 100 complete control, read-out: Plant response rating, Ragweed
In short: as §1

[9] = tested on: giant foxtail (Setaria faberii); test: Test A postemergence; settings: Setaria faberi, post-emergence, 240 h; for pest or weed control at 125 g/ha: 125 g ai/ha, postemergence, visual injury on 0 to 100 scale (0 no effect, 100 complete control), approx. 10 d, read-out: Foxtail, Giant plant response rating; for pest or weed control at 31 g/ha: Postemergence, 31 g ai/ha, visual injury after approx. 10 d, 0 to 100 scale, 0 no effect, 100 complete control, read-out: Plant response rating, Foxtail, Giant
In short: as §1

Kochia (Kochia scoparia) [10] = test: Test A preemergence; settings: Bassia scoparia, pre-emergence, 240 h, 0 to 100 scale where 0 is no effect and 100 is complete control, read-out: Kochia plant response rating; for pest or weed control at 31 g/ha: 31 g ai/ha, Preemergence
In short: as §1

[11] = tested on: barnyardgrass (Echinochloa crus-galli); test: Test A preemergence; settings: Echinochloa crus-galli, pre-emergence, 240 h, 0 to 100 scale where 0 is no effect and 100 is complete control, read-out: Barnyardgrass plant response rating; for pest or weed control at 31 g/ha: 31 g ai/ha, Preemergence; for pest or weed control at 125 g/ha: 125 g ai/ha, preemergence, approx. 10 d
In short: as §1

[12] = tested on: pigweed (Amaranthus retroflexus); test: Test A preemergence; settings: Amaranthus retroflexus, pre-emergence, 240 h, 0 to 100 scale where 0 is no effect and 100 is complete control, read-out: Pigweed plant response rating; for pest or weed control at 31 g/ha: 31 g ai/ha, Preemergence; for pest or weed control at 125 g/ha: 125 g ai/ha, preemergence, approx. 10 d
[13] = tested on: ryegrass, Italian (Italian ryegrass, Lolium multiflorum); test: Test A preemergence; settings: Lolium multiflorum, pre-emergence, 240 h, 0 to 100 scale where 0 is no effect and 100 is complete control, read-out: Ryegrass, Italian plant response rating; for pest or weed control at 31 g/ha: 31 g ai/ha, Preemergence; for pest or weed control at 125 g/ha: 125 g ai/ha, preemergence, approx. 10 d
In short: as §1

[14] = tested on: ragweed (common ragweed, Ambrosia elatior); test: Test A preemergence; settings: Ambrosia artemisiifolia, pre-emergence, 240 h, 0 to 100 scale where 0 is no effect and 100 is complete control, read-out: Ragweed plant response rating; for pest or weed control at 31 g/ha: 31 g ai/ha, Preemergence; for pest or weed control at 125 g/ha: 125 g ai/ha, preemergence, approx. 10 d
In short: as §1

[15] = tested on: giant foxtail (Setaria faberii); test: Test A preemergence; settings: Setaria faberi, pre-emergence, 240 h, 0 to 100 scale where 0 is no effect and 100 is complete control, read-out: Foxtail, Giant plant response rating; for pest or weed control at 31 g/ha: 31 g ai/ha, Preemergence; for pest or weed control at 125 g/ha: 125 g ai/ha, preemergence, approx. 10 d
In short: as §1

rice (Oryra sativa) = test: Test B flooded paddy test; settings: Oryza sativa, 250 g ai/ha, Flood; 0 to 100 scale where 0 is no effect and 100 is complete control; read-out: Rice plant response rating
In short: (§2)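 Percent control, visually estimated after 13–15 d in the greenhouse on a 0–100 basis, compares treated pots with untreated ones; compound was put into paddy water 3 cm above the soil when plants had two leaves.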

[16] = tested on: barnyardgrass (Echinochloa crus-galli); test: Test B flooded paddy test; settings: Echinochloa crus-galli, 250 g ai/ha, Flood; 0 to 100 scale where 0 is no effect and 100 is complete control; read-out: Barnyardgrass plant response rating
In short: as §2

[17] = tested on: ducksalad (Heteranthera limosa); test: Test B flooded paddy test; settings: Heteranthera limosa, 250 g ai/ha, Flood; 0 to 100 scale where 0 is no effect and 100 is complete control; read-out: Ducksalad plant response rating
In short: as §2

[18] = tested on: sedge, umbrella (small-flower umbrella sedge, Cyperus difformis); test: Test B flooded paddy test; settings: Cyperus difformis, 250 g ai/ha, Flood; 0 to 100 scale where 0 is no effect and 100 is complete control; read-out: Sedge, Umbrella plant response rating
In short: as §2

SMILES	plant injury at 125 g/ha [1]	plant injury at 31 g/ha [1]	pest or weed control at 125 g/ha [2]	pest or weed control at 31 g/ha [2]	pest or weed control at 31 g/ha (Kochia (Kochia scoparia) [3])	plant injury at 125 g/ha (corn (Zea mays))	Corn plant response rating (crop injury, 0 = no effect, 100 = complete kill) at 31 g/ha (corn (Zea mays))	pest or weed control at 125 g/ha [4]	pest or weed control at 31 g/ha [4]	pest or weed control at 125 g/ha [5]	pest or weed control at 31 g/ha [5]	pest or weed control at 125 g/ha [6]	pest or weed control at 31 g/ha [6]	pest or weed control at 125 g/ha [7]	pest or weed control at 31 g/ha [7]	pest or weed control at 125 g/ha [8]	pest or weed control at 31 g/ha [8]	pest or weed control at 125 g/ha [9]	pest or weed control at 31 g/ha [9]	pest or weed control at 31 g/ha (Kochia (Kochia scoparia) [10])	also measured
Cc1cc([C@H]2CN(C)C(=O)[C@@H]2C(=O)Nc2ccccc2C(F)(F)F)ccc1Br [Compound 1103]	20%	0%	50%	30%	0%	0%	0%	70%	40%	0%	0%	30%	20%	20%	0%	30%	0%	80%	50%	0%	pest or weed control at 31 g/ha [11]: 20%; pest or weed control at 125 g/ha [11]: 70%; pest or weed control at 31 g/ha [12]: 0%; pest or weed control at 125 g/ha [12]: 0%; pest or weed control at 31 g/ha [13]: 0%; pest or weed control at 125 g/ha [13]: 0%; pest or weed control at 31 g/ha [14]: 0%; pest or weed control at 125 g/ha [14]: 20%; pest or weed control at 31 g/ha [15]: 70%; pest or weed control at 125 g/ha [15]: 90%; pest or weed control at 250 g/ha (rice (Oryra sativa)): 25%; pest or weed control at 250 g/ha [16]: 75%; pest or weed control at 250 g/ha [17]: 90%; pest or weed control at 250 g/ha [18]: 0%
O=C1NC[C@H](c2ccc(C(F)(F)F)cn2)[C@H]1C(=O)Nc1cccc(F)c1F [Compound 1104]	0%	0%	0%	0%	0%	0%	0%	30%	0%	0%	0%	0%	0%	0%	0%	0%	0%	0%	0%	0%	pest or weed control at 125 g/ha (Kochia (Kochia scoparia) [3]; 125 g ai/ha, postemergence, visual injury on 0 to 100 scale (0 no effect, 100 complete control), approx. 10 d, read-out: Kochia plant response rating): 0%; pest or weed control at 125 g/ha (Kochia (Kochia scoparia) [10]; 125 g ai/ha, preemergence, approx. 10 d): 0%; pest or weed control at 31 g/ha [11]: 0%; pest or weed control at 125 g/ha [11]: 50%; pest or weed control at 31 g/ha [12]: 0%; pest or weed control at 125 g/ha [12]: 0%; pest or weed control at 31 g/ha [13]: 0%; pest or weed control at 125 g/ha [13]: 0%; pest or weed control at 31 g/ha [14]: 0%; pest or weed control at 125 g/ha [14]: 0%; pest or weed control at 31 g/ha [15]: 0%; pest or weed control at 125 g/ha [15]: 70%; pest or weed control at 250 g/ha (rice (Oryra sativa)): 20%; pest or weed control at 250 g/ha [16]: 40%; pest or weed control at 250 g/ha [17]: 100%; pest or weed control at 250 g/ha [18]: 0%
